# Source: patent publication US20260325643A1, “METHOD AND PHARMACEUTICAL COMPOSITION FOR VISIBLE LIGHT-INDUCED CORNEAL CROSSLINKING WITH RUTHENIUM COMPOUNDS FOR THE TREATMENT OF EYE DISORDERS” (KOC UNIVERSITESI, priority 2022, published 2026)
# Tests used:
# LMSCs and HCECs = test: Annexin V-FITC/PI flow cytometry; format: cell-based, human; conditions: 1 hour treatment; compared with ruthenium-SPS treated cells
# Experimental: The effects of [Ru(bpy)3]^2+ and SPS solutions on cell viability and apoptosis were examined by Annexin-V/propidium iodide (PI) staining in flow cytometry. LMSCs and HCECs (10^5 cells/well) were plated in 6-well culture dishes. [Ru(bpy)3]^2+ and SPS in various concentrations (1 mM and 10 mM) were added to the cell culture medium. The cells were incubated for 1 hour at 37 °C. After the treatment with the solutions, the cells were collected and washed with PBS at 4 °C. The cells were resuspended in 1× binding buffer at a 1×10^5 cells/ml density. 100 μl of the cell suspension were labeled with 2.5 μl of fluorochrome-conjugated Annexin V and 5 μl of PI according to the manufacturer's protocol (BioLegend, San Diego, CA, USA) and analyzed by using a flow cytometer (Attune N. T Flow Cytometer, Thermo Fisher Scientific, Waltham, MA, USA).
# Annexin V-FITC and propidium iodide staining provide sensitive outcomes for detecting cellular apoptosis. While annexin V-FITC binds on the surface of cells that undergo programmed cell death, PI detects necrotic or late apoptotic cells characterized by loss of plasma and nuclear membrane integrity. Cells treated with [Ru(bpy)3]^2+ and/or SPS for 1 hour were harvested after treatment and stained with Annexin V-FITC and PI.
# [1] = system: human corneal epithelial cells (HCECs) and limbal mesenchymal stem cells (LMSCs); test: Cell viability / cytotoxicity, HCECs and LMSCs taken together; format: cell-based; conditions: Ruthenium or/and SPS
# Text: Furthermore, the cytotoxic effects of Ruthenium and SPS compound on human corneal epithelial cells (HCECs) and limbal mesenchymal stem cells (LMSCs) were investigated to determine the ruthenium concentration and time needed for the cross-linking process. The relative viabilities of cells were detected by CellTiter-Glo® Luminescent Cell Viability Assay (Promega, Mannheim, Germany) detected the relative viabilities of cells, which is a method used to detect the number of viable cells depending on the amount of ATP in alive cells. […] (FIGS. 3A-3B)
# cornea = conditions: background, cited from earlier work; for hardness / stiffness of cross-linked cornea: Rose Bengal/Green Light (532 nm) or riboflavin/UV-A
# [2] = obtained from previous literature [15, 16]; cited from earlier work
# bovine corneas [3] = test: Enzymatic digestion (collagenase) test of corneas; conditions: 24 hours of digestion by collagenases
# Experimental: (§1) For biomechanical experiments, bovine corneas were used. First the corneal epithelia were removed with a scalpel blade and 8 mm central corneal buttons were isolated from bovine eyes with a trephine blade (Katena, Parsippany, NJ, USA). After that, corneal buttons separated into three different experimental groups: • Ruthenium (Ru)-Sodium persulfate (SPS)/visible light, • Riboflavin/UV-A light, and • Control groups.
# (§2) [Ru(bpy)3]^2+ and SPS solution was prepared in PBS via dissolving Tris(2,2′-bipyridyl)dichlororuthenium(II) hexahydrate (544981, Sigma-Aldrich, MO, USA) and sodium persulfate (216232, Sigma-Aldrich, MO, USA). Ru-SPS solution was prepared in two different concentrations: 0.001 M (1 mM) and 0.0001 M (0.1 mM) was dropped on corneal buttons and the samples were incubated for 5 min for the samples in the Ru-SPS experimental group. Then all solutions were removed, and 430 nm visible light (3 mW/cm^2) was applied to the samples for 40 min. To mimic the standard CXL corneal collagen crosslinking procedure for the riboflavin experimental group, 0.002 M (2 mM) riboflavin 5′-monophosphate solution (18167, Cayman Chemical, MI, USA) was dropped on corneal buttons and the samples were incubated for 5 min. Then riboflavin solution was removed, and 365 nm visible light (3 mW/cm^2) applied to the cornea samples for 40 min. No solution or light was applied to the corneas in the control group. […]
# bovine corneas [4] = test: Corneal optical transparency and Lambert-Beer penetration distance
# Experimental: The standard protocol for corneal crosslinking can only be applied in cases with a corneal thickness above 400 μm. When applied to thinner corneas, UV-A beam reaches the corneal endothelial cells resulting in endothelial toxicity and corneal edema. For this purpose, the Lambert-Beer formula was applied for optical transmittance results of both photoinitiator solutions (FIG. 6C). Corneal light transmittance was then calculated with the Lambert-Beer formula: […]
# In this formula, A represents the optical absorbance of the sample, ε represents the molar attenuation coefficient of the photoinitiator, c is the concentration of the photoinitiator, and l is the total optical path length of the light. For these calculations, molar attenuation coefficients for each photoinitiators (10066 M^−1 cm^−1 for riboflavin and 14,600 M^−1 cm^−1 for tris(2,2′-bipyridyl)ruthenium(II)) obtained from previous literature.[15, 16] […]
# Corneal optical transparencies were measured in corresponding light wavelengths for each experimental group. For the 2 mM riboflavin-based crosslinked corneas, average optical transparency in 365 nm was measured as 0.713±0.222. In the same conditions, the average optical transparency for 1 mM ruthenium-based crosslinked corneas was measured as 0.724±0.050 in 430 nm light wavelength, which is correlated with the riboflavin-based CXL procedure. […]
# bovine corneas [5] = test: Osmotic stress (swelling) test; conditions: 15% dextran-500 PBS overnight, then three hours in distilled water
# Experimental: as §1, §2
# bovine corneas [6] = test: Rheological measurements of crosslinked corneas (time sweep); conditions: 2 mM riboflavin, UV-A 365 nm, after 30 min
# Experimental: as §1
# [Ru(bpy)3]^2+ and SPS solution was prepared in PBS via dissolving Tris(2,2′-bipyridyl)dichlororuthenium(II) hexahydrate (544981, Sigma-Aldrich, MO, USA) and sodium persulfate (216232, Sigma-Aldrich, MO, USA). Ru-SPS solution was prepared in two different concentrations: 0.001 M (1 mM) and 0.0001 M (0.1 mM) was dropped on corneal buttons and the samples were incubated for 5 min for the samples in the Ru-SPS experimental group. Then all solutions were removed, and 430 nm visible light (3 mW/cm^2) was applied to the samples for 40 min. […]
# Rheological measurements were carried out in time sweep mode with 1 Hz frequency, 1% strain using TA Instruments AR/DHR series rheometer (New Castle, DE) equipped with two different light sources: visible light ([…]) and UV-A light (λ=365 nm). […] Storage and loss moduli profiles were recorded as a function of time continuously for 40 min at ambient conditions. […]
# bovine corneas [7] = test: Uniaxial stress-strain test of corneal strips
# Experimental: as §1
# [Ru(bpy)3]^2+ and SPS solution was prepared in PBS via dissolving Tris(2,2′-bipyridyl)dichlororuthenium(II) hexahydrate (544981, Sigma-Aldrich, MO, USA) and sodium persulfate (216232, Sigma-Aldrich, MO, USA). Ru-SPS solution was prepared in two different concentrations: 0.001 M (1 mM) and 0.0001 M (0.1 mM) was dropped on corneal buttons and the samples were incubated for 5 min for the samples in the Ru-SPS experimental group. Then all solutions were removed, and 430 nm visible light (3 mW/cm^2) was applied to the samples for 40 min. To mimic the standard CXL corneal collagen crosslinking procedure for the riboflavin experimental group, 0.002 M (2 mM) riboflavin 5′-monophosphate solution (18167, Cayman Chemical, MI, USA) was dropped on corneal buttons and the samples were incubated for 5 min. Then riboflavin solution was removed, and 365 nm visible light (3 mW/cm^2) applied to the cornea samples for 40 min. No solution or light was applied to the corneas in the control group.
# The stress-strain test was performed on a full-thickness minus the epithelium corneal strips dissected from the bovine corneas. The mechanical properties of all the samples were determined using force and displacement measurements. The initial cross-sectional area and the corresponding force measurements of each test sample were used to calculate the engineering stress. The maximum displacement at the breakage point of each sample was used to estimate the change in the length of each sample. This change in the length was related nominally to the initial length of the corresponding test sample to calculate the engineering strain. The modulus of elasticity and the ultimate tensile strength of each sample was then estimated by the engineering stress-strain curves. The ultimate tensile strength was defined as the peak value of stress on the stress-strain curve before the breakage point of the sample when being stretched. The linear regression analysis between the zero point and the point that equals 70% of the maximum stress for each sample was used to compute the modulus of elasticity. The modulus of elasticity is a material-dependent property such that it depends upon the internal structure and the bond strength between the atoms of each sample. Therefore, the modulus of elasticity remained similar for one sample type; however, it differed for other sample types. […]
# bovine corneas [8] = test: UV & visible spectrophotometry of corneas; conditions: PBS, UV (300-400) and visible (400-800); different crosslinking procedures
# Experimental: Optical transmission and absorption tests were performed on de-epithelized bovine corneas for the UV and visible light spectrum. Control and crosslinked corneas were submerged in PBS, and their optical transmission was assessed using a UV-Vis. Spectrometer (Edinburgh Instruments Spectrofluorometer FS5). Transmittance spectra (% T) were collected from 300 to 800 nm at 1 nm increments. […] The results are illustrated in FIGS. 7A-7B.
resistance to enzymatic digestion (bovine corneas [3]),Structure (SMILES),cell death (Annexin V-FITC/PI) (LMSCs and HCECs),cytotoxicity influence on viability of cells [1],hardness / stiffness of cross-linked cornea (cornea),depth of cross-linking effect (cornea; Rose Bengal/Green Light (532 nm)),"healing time of corneal haze, in some eyes (cornea; riboflavin/UV-A)",molar attenuation coefficient [2] [M⁻¹ cm⁻¹],"average optical transparency (bovine corneas [4]; 2 mM riboflavin-based crosslinked corneas, 365 nm)",mean distance traveled in the bovine cornea (bovine corneas [4]; Lambert-Beer formula applied to optical transmittance results) [μm],swelling vs normal corneas (bovine corneas [5]),average storage modulus (bovine corneas [6]) [kPa],stiffness compared to control (bovine corneas [7]; from modulus of elasticity),increase of modulus of elasticity vs control (bovine corneas [7]; riboflavin-treated),increase of ultimate tensile strength vs control (bovine corneas [7]; riboflavin-treated),strain compared to control (bovine corneas [7]; stress-strain test),"optical absorbance of corneas, change after crosslinking (bovine corneas [8])","optical transmission of corneas, change after crosslinking (bovine corneas [8])"
–,"O=S(=O)([O-])OOS(=O)(=O)[O-].[Na+].[Na+] [SPS, sodium persulfate]",higher degree of cell death than ruthenium-SPS treated cells,dose-dependent cytotoxicity,–,–,–,–,–,–,–,–,–,–,–,–,–,–
–,O=C1OC2(c3cc(I)c(O)c(I)c3Oc3c2cc(I)c(O)c3I)c2c(Cl)c(Cl)c(Cl)c(Cl)c21 [Rose Bengal],–,–,increased hardness,more superficial effect,–,–,–,–,–,–,–,–,–,–,–,–
digested entirely after 24 hours,"Cc1cc2nc3c(=O)[nH]c(=O)nc-3n(C[C@H](O)[C@H](O)[C@H](O)COP(=O)(O)O)c2cc1C [riboflavin, riboflavin 5′-monophosphate]",–,–,increased corneal stiffness,–,6-12 months,10066,0.713±0.222,719,less swelling,92.88,overall increasing stiffness,approximately 16%,approximately 16%,decreasing strain trend,did not change significantly,did not change significantly
